# Calls of active or inactive are those of the source.
# Assays:
# [1] = target: T1, Induced myeloid leukemia cell differentiation protein Mcl-1 (Homo sapiens, UniProt Q07820); test: Binding affinity to full length human MCL1 expressed in Escherichia coli BL21 (DE3) assessed as inhibition constant preincubated for 30 mins followed by 5-FAM-QEDIIIINIARHLAQVGDSMD-RSIPPG tracer addition and measured after 20 mins by fluorescence polarization assay
# [2] = tested on: HEK-293T; test: Cytotoxicity against HEK293T cells assessed as reduction in cell viability incubated for 48 hrs by CCK8 assay; conditions: Homo sapiens
# [3] = tested on: RS4-11; test: cells; conditions: Homo sapiens, RS4-11, 48 h
# Description: Cytotoxicity against human RS4-11 cells assessed as inhibition of cell growth incubated for 48 hrs by CCK8 assay
# [4] = tested on: HeLa; test: cells; conditions: Homo sapiens, 48 h
# Description: Cytotoxicity against human HeLa cells assessed as inhibition of cell growth incubated for 48 hrs by CCK8 assay
# [5] = target: T2, Bcl-2-like protein 1 (Homo sapiens, UniProt Q07817); test: Binding affinity to full length human Bcl-xl expressed in Escherichia coli BL21 (DE3) at up to 100 uM preincubated for 30 mins followed by 5-FAM-QEDIIIINIARHLAQVGDSMD-RSIPPG tracer addition and measured after 20 mins by fluorescence polarization assay; conditions: dose microM <=100, time 50.0 min
# [6] = tested on: HL-60; test: cells; conditions: Homo sapiens, HL-60, 48 h
# Description: Cytotoxicity against human HL-60 cells assessed as inhibition of cell growth incubated for 48 hrs by CCK8 assay
# [7] = target: T3, Apoptosis regulator Bcl-2 (Homo sapiens, UniProt P10415); test: Binding affinity to full length human Bcl-2 expressed in Escherichia coli BL21 (DE3) at up to 100 uM preincubated for 30 mins followed by 5-FAM-QEDIIIINIARHLAQVGDSMD-RSIPPG tracer addition and measured after 20 mins by fluorescence polarization assay; conditions: dose microM <=100, time 50.0 min
# [8] = target: T2, Bcl-2-like protein 1; test: Binding affinity to full length human Bcl-xl expressed in Escherichia coli BL21 (DE3) at 100 uM preincubated for 30 mins followed by 5-FAM-QEDIIIINIARHLAQVGDSMD-RSIPPG tracer addition and measured after 20 mins by fluorescence polarization assay relative to control; conditions: time 50.0 min
# [9] = target: T3, Apoptosis regulator Bcl-2; test: Binding affinity to full length human Bcl-2 expressed in Escherichia coli BL21 (DE3) at 100 uM preincubated for 30 mins followed by 5-FAM-QEDIIIINIARHLAQVGDSMD-RSIPPG tracer addition and measured after 20 mins by fluorescence polarization assay relative to control; conditions: time 50.0 min
# [10] = target: T1, Induced myeloid leukemia cell differentiation protein Mcl-1; test: Binding affinity to full length human MCL1 expressed in Escherichia coli BL21 (DE3) at 100 uM preincubated for 30 mins followed by 5-FAM-QEDIIIINIARHLAQVGDSMD-RSIPPG tracer addition and measured after 20 mins by fluorescence polarization assay relative to control; conditions: time 50.0 min
# [11] = target: T1, Induced myeloid leukemia cell differentiation protein Mcl-1; test: Binding affinity to full length human MCL1 expressed in Escherichia coli BL21 (DE3) at up to 100 uM preincubated for 30 mins followed by 5-FAM-QEDIIIINIARHLAQVGDSMD-RSIPPG tracer addition and measured after 20 mins by fluorescence polarization assay; conditions: dose microM <=100, time 50.0 min
# T1 sequence (Q07820 whole entry): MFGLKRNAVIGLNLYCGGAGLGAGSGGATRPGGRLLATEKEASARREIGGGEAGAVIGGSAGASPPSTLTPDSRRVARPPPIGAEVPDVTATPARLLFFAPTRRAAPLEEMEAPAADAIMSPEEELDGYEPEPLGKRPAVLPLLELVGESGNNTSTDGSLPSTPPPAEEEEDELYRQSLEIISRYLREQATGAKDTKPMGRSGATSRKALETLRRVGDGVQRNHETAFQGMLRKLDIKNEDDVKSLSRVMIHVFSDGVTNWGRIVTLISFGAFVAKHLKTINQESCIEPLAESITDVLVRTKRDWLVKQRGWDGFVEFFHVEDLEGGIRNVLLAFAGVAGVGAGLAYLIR
# T2 sequence (Q07817 whole entry): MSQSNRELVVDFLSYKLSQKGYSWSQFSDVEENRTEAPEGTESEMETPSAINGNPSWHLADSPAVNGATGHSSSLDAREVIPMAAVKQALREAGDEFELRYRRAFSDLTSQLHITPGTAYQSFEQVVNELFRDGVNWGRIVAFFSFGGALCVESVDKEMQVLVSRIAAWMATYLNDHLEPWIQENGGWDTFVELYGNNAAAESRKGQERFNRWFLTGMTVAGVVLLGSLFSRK
# T3 sequence (P10415 whole entry): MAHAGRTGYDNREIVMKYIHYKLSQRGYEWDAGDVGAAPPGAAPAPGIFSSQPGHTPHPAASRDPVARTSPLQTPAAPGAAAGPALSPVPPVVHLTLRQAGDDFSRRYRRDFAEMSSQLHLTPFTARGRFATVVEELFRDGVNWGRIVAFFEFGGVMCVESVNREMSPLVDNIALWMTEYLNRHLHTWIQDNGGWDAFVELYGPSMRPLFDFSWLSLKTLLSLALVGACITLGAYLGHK
smiles,measurement,setting,value
O=C(NCCNS(=O)(=O)c1ccc(-c2ccccc2Oc2ccc([N+](=O)[O-])c([N+](=O)[O-])c2)s1)Nc1ccc(Cl)cc1,Ki,[1],5.9 µM
same,IC50,[2],> 20 µM
same,IC50,[3],6.7 µM
same,IC50,[4],> 20 µM
same,Activity,[5],inactive
same,IC50,[6],8.1 µM
same,Activity,[7],inactive
O=S(=O)(c1sccc1-c1ccccc1Oc1ccc(O)c(O)c1)N1CCN(C(=S)Nc2ccc(Cl)cc2)CC1,IC50,[2],> 50 µM
same,inhibition,[8],3%
same,IC50,[3],7.5 µM
same,inhibition,[9],2%
same,IC50,[4],> 50 µM
same,IC50,[6],5.5 µM
same,inhibition,[10],20%
COc1ccc(Oc2ccccc2-c2ccsc2S(=O)(=O)N2CCN(C(=O)Nc3ccc([N+](=O)[O-])cc3)CC2)cc1OC,IC50,[2],> 20 µM
same,inhibition,[8],20%
same,IC50,[3],> 50 µM
same,inhibition,[9],17%
same,IC50,[4],> 50 µM
same,IC50,[6],> 50 µM
same,inhibition,[10],22%
COc1ccc(Oc2ccccc2-c2ccsc2S(=O)(=O)N2CCN(C(=S)Nc3ccc(Cl)cc3)CC2)cc1OC,IC50,[2],> 20 µM
same,inhibition,[8],33%
same,IC50,[3],> 50 µM
same,inhibition,[9],18%
same,IC50,[4],> 50 µM
same,IC50,[6],> 50 µM
same,inhibition,[10],43%
CC(C)c1ccc(Oc2ccc(O)c(O)c2)c(-c2ccsc2S(=O)(=O)NCCNC(=O)Nc2cc(Cl)cc(Cl)c2)c1,Ki,[1],0.36 µM
same,IC50,[2],> 10 µM
same,IC50,[3],6.4 µM
same,IC50,[4],> 50 µM
same,Activity,[5],inactive
same,IC50,[6],6.5 µM
same,Activity,[7],inactive
COc1ccc(Oc2ccccc2-c2ccsc2S(=O)(=O)N2CCN(C(=O)Nc3ccc(F)cc3)CC2)cc1OC,IC50,[2],> 50 µM
same,inhibition,[8],33%
same,IC50,[3],14.9 µM
same,inhibition,[9],15%
same,IC50,[4],> 20 µM
same,IC50,[6],> 20 µM
same,inhibition,[10],28%
COc1cccc(NC(=O)NCCNS(=O)(=O)c2ccc(-c3ccccc3OCc3ccccc3)s2)c1,Ki,[1],11 µM
same,IC50,[2],> 20 µM
same,IC50,[3],> 20 µM
same,IC50,[4],> 50 µM
same,Activity,[5],inactive
same,IC50,[6],1.7 µM
same,Activity,[7],inactive
COc1cccc(NC(=S)NCCNS(=O)(=O)c2sccc2-c2ccc(C)cc2Oc2ccc(O)c(O)c2)c1,Ki,[1],6 µM
same,IC50,[2],> 50 µM
same,IC50,[3],> 20 µM
same,IC50,[4],> 50 µM
same,Activity,[5],inactive
same,IC50,[6],> 50 µM
same,Activity,[7],inactive
O=C(NCCNS(=O)(=O)c1ccc(-c2ccccc2Oc2ccc([N+](=O)[O-])c([N+](=O)[O-])c2)s1)Nc1ccc([N+](=O)[O-])cc1,IC50,[2],16.6 µM
same,Activity,[11],inactive
same,IC50,[3],3 µM
same,IC50,[4],> 20 µM
same,Activity,[5],inactive
same,IC50,[6],0.34 µM
same,Activity,[7],inactive
COc1ccc(Oc2ccc([N+](=O)[O-])cc2-c2ccsc2S(=O)(=O)N2CCN(C(=S)Nc3ccc([N+](=O)[O-])cc3)CC2)cc1OC,IC50,[2],> 50 µM
same,inhibition,[8],27%
same,IC50,[3],> 50 µM
same,inhibition,[9],16%
same,IC50,[4],> 50 µM
same,IC50,[6],> 50 µM
same,inhibition,[10],26%
O=[N+]([O-])c1ccc(Oc2ccccc2-c2ccc(S(=O)(=O)NCCNC(=S)Nc3cc(C(F)(F)F)cc(C(F)(F)F)c3)s2)cc1,IC50,[2],6 µM
same,Activity,[11],inactive
same,IC50,[3],6.3 µM
same,IC50,[4],9.9 µM
same,Activity,[5],inactive
same,IC50,[6],7.2 µM
same,Activity,[7],inactive
O=C(NCCNS(=O)(=O)c1ccc(-c2ccccc2OCc2ccccc2)s1)Nc1cc(C(F)(F)F)cc(C(F)(F)F)c1,IC50,[2],> 20 µM
same,Activity,[11],inactive
same,IC50,[3],> 50 µM
same,IC50,[4],13.5 µM
same,Activity,[5],inactive
same,IC50,[6],11.4 µM
same,Activity,[7],inactive
Cc1ccc(-c2ccsc2S(=O)(=O)NCCNC(=O)Nc2cccc([N+](=O)[O-])c2)c(Oc2ccc(O)c(O)c2)c1,Ki,[1],13 µM
same,IC50,[2],6.8 µM
same,IC50,[3],9.1 µM
same,IC50,[4],> 20 µM
same,Activity,[5],inactive
same,IC50,[6],6 µM
same,Activity,[7],inactive
Cc1cc(C)cc(NC(=O)NCCNS(=O)(=O)c2ccc(-c3ccccc3OCc3ccccc3)s2)c1,IC50,[2],> 20 µM
same,Activity,[11],inactive
same,IC50,[3],> 50 µM
same,IC50,[4],> 50 µM
same,Activity,[5],inactive
same,IC50,[6],2.2 µM
same,Activity,[7],inactive

# From ChEMBL document CHEMBL5034015, “Structure-Based Optimization of 3-Phenyl-N-(2-(3-phenylureido)ethyl)thiophene-2-sulfonamide Derivatives as Selective Mcl-1 Inhibitors” (J Med Chem, 2021)
